The text below walks through data of patent publication US20140128418A1, “PYRAZOLE DERIVATIVES, PREPARATION METHOD THEREOF, AND COMPOSITION FOR PREVENTING AND TREATING OSTEOPOROSIS CONTAINING SAME” (EWHA UNIVERSITY-INDUSTRY COLLABORATION FOUNDATION, priority 2011, published 2014).

The structures appear in SMILES notation.

Test [1] relates to bone loss induced by ovariectomy. The test is described as follows: Inhibitory effect on bone loss induced by ovariectomy in ovariectomized mouse models (tibia, μ-CT, TRAP staining). The class given is in vivo, female mice. The note with it: ovariectomized mice, intraperitoneal for 3 weeks at intervals of 2 days, versus control group 1 (ovariectomy). An excerpt: In order to examine the inhibitory effects of the compounds on the bone loss induced by ovariectomy in ovariectomized mouse models, 8-week old female mice were divided into control groups 1 and 2 and experimental group 1, each containing 5 mice.
The mice in control group 1 and experimental group 1 were subjected to ovariectomy via laparotomy, and the mice in control group 2 were subjected to laparotomy in the same manner as in control group 1 and experimental group 1, but without ovariectomy, and served as a sham control.
The compound of Example 13 was intraperitoneally administered to the mice of experimental group 1 for 3 weeks at intervals of 2 days after 7 days of recovery from the surgery. After verification of excision of ovary of mice, both tibiae were harvested from the mice of experimental group 1 and control groups 1 and 2, and cross-sections were consecutively imaged using μ-CT (Skyscan 1076, SKYS CAN N. V.) and V-works program (Cybermed) and reconstructed into 3-dimensional images. Then, the bone volume, bone density, and the number of trabecular bones were quantified using an image analysis program.
The experimental results and statistical analysis using ANOVA (one-way analysis of variance) if verify the Newman kulseu (Newman-Keuls test) significance is verified using the […] level or less, a significance test was performed.
In FIG. 9, the bone volume is expressed as a percentage (BV/TV %) of the bone volume (BV) of the harvested tibia to the total bone volume (TV), and in FIG. 11, the number of trabecular bones is expressed as the number of trabecular bones) per 1 millimeter (mm).
Moreover, the harvested tibiae were placed in PBS, formaldehyde added, and fixed for 24 hours and then decalcified in PBS to which was added 0.5 M EDTA. […] Moreover, the number of osteoclasts was analyzed under a microscope using the Osteomeasure software program (Osteometrics Inc., USA), and the results are shown in FIG. 13, in which the quantification of osteoclasts is expressed as the number of osteoclasts per bone surface 1 millimeter (mm). […]

Test [2] concerns differentiation of macrophages into osteoclasts. The test is described as follows: Inhibitory effect on differentiation of macrophages into osteoclasts (rhM-CSF/RANKL, TRAP staining). The class given is cell-based, mice (C57BL/6J). The note with it: mouse bone marrow macrophages, rhM-CSF 30 ng/mL + RANKL 200 ng/mL, 5 days, light microscope, Examples 2, 3, 7, 8, 9, 11 tested against Comparative Example 1 as control, FIGS. 1 to 6. On the procedure:
Bone marrow cells were harvested from 4 to 5-week old male mice (C57BL/6J). Specifically, mice were sacrificed by cervical dislocation, and femur and tibia were extracted while removing muscles adhered around the bone with scissors and soaked in phosphate buffered saline (PBS). A 1 mL syringe filled with α-minimum essential medium (α-MEM) was put into one end of the femur and tibia from which bone marrow cells were then harvested.
The bone marrow cells were cultured to obtain macrophages. Specifically, the obtained bone marrow cells were placed in a 50 mL tube and centrifuged at 1500 rpm for 5 minutes. Then, the supernatant was removed, and a 3:1 mixture of a Gey's solution and PBS was added and maintained at room temperature for about 2 to 3 minutes. After another centrifugation (1500 rpm, 5 minutes), the supernatant was removed, α-MEM was added, followed by stirring, and then the cells were cultured in a 10 cm cell culture dish at 37° C. for 24 hours. After the third centrifugation (1500 rpm, 5 minutes), the supernatant was removed, a culture medium and a macrophage differentiation factor rhM-CSF (30 ng/mL) were added, and then the cells were cultured in a 10 cm cell culture dish at 37° C. for 3 days. After 3 days, macrophages adhered to the dish were scraped and collected in a tube, followed by centrifugation (1500 rpm, 5 minutes). […]

Consider `COc1cc(/C=C/c2nn(-c3ccccn3)c(O)c2Cc2ccccc2)ccc1O` [Example 13, 1-(pyridin-2-yl)-3-[(3-methoxy-4-hydroxyphenyl)-E-ethenyl]-4-benzyl-1H-pyrazol-5-ol], for which the “reduction in bone volume of the tibia (BV/TV %)” value in test [1] (FIG. 9) is listed as “less than that in control group 1”. Moreover, the “bone density of the tibia” value in test [1] (FIG. 10) is on record as “higher”. Besides, the “number of trabecular bones (per 1 mm)” value in test [1] (FIG. 11) is listed as “higher”.

Take `Oc1cc(-c2ccccc2)nn1-c1ccccn1` [Comparative Example 1, 3-phenyl-1-(pyridin-2-yl)-1H-pyrazol-5-ol]: the “differentiation of macrophages into osteoclasts” value in test [2] was “more macrophages differentiated into osteoclasts”.
